Data taken from patent US10632127B2, “Targeted notch pathway inhibitors” (Hoffmann-La Roche Inc., priority 2015, dated 2020).
Where two headings read alike, the source gives them in different places.

Key:
[1] = Distribution in plasma, liver and kidney in the aristolochic acid mouse model (repeated i.p.); type: in vivo; conditions: for concentration at 13 h: male, C57BL/6, mouse, ip
Protocol: For PK evaluation, the compounds were administered i.p to male C57BL/6 mice in suspension (gelatine/saline 7.5%/0.62% in water) using an administration volume of 4 mL/kg. Blood samples were collected in tubes containing EDTA, plasma was separated by centrifugation and stored at −80° C. Liver and kidney samples (˜100 mg aliquots) were homogenized in three volumes of water using Precellys tissue homogenization tubes (precellys.com). 25 μL of each tissue homogenate was further diluted with 25 μL blank plasma to produce the final tissue homogenate for extraction. All samples were analyzed using protein precipitation followed by LC-MS/MS analysis. Briefly, 50 μL plasma or final tissue homogenate were mixed with 50 μL 0.5M HClO4/acetonitrile 9/1 (containing 200 ng/mL internal standard bosentan). Samples were stirred and 300 μL water was added followed by centrifugation at 5600 rpm (4° C., 10 min). 10 μL supernatant was analyzed by LC/MS analysis. Calibration standards in plasma were prepared the same way. The LC column and conditions used were: Phenomenex, Polar RP, 4 μm, 50×2.1 mm at 0.4 mL/min flow rate with a 3 min gradient from 95% solvent A to 95% solvent B (Solvent A: Water/ACN/HCOOH, 90:10:0.1+10 mM NH4 formate; Solvent B: Water/ACN/HCOOH, 10:90:0.1+10 mM NH4 formate). Mass spectrometric conditions were: Thermo TSQ Vantage with positive heated electrospray ionization in MS/MS mode. Compounds mass transitions monitored were m/z 320.7 to 119.9. PK parameters for all studies were calculated using Phoenix WinNonlin Software.
All experiments with animals were conducted in accordance with federal and local regulation at the respective study location. Kidney injury was induced by intraperitoneal (i.p). injection of aristolochic acid (AA, Sigma-Aldrich, 1×5 mg/kg) in 10 weeks old BALB/c male mice. The γ-secretase inhibitors prodrugs were diluted in NaCl 0.9% and administered i.p., starting one day before the injection of AA (day −1) and then twice daily until day 6 evening (n=5 mice/experimental group). […] The kidneys were cut in four fragments. One fragment was immediately frozen in liquid nitrogen, one fragment was included in OCT (Tissue-Tek, VWR International, Switzerland) and frozen, one fragment was frozen at −80° C. and one fragment was fixed in 4% paraformaldehyde and included in paraffin.
To investigate potential nephroprotective effects of Notch blockade using γ-secretase inhibition and to evaluate the effects of our enzyme-targeted prodrug strategy, we used the in vivo AA mouse model of acute renal tubular damage. […]
Plasma and tissue concentrations of administered compound (Table 6A-C) and formed free γ-secretase inhibitor (8) (Table 6A) or amine-SecrI (11a) (Table 6B-C) were determined following 8-day repeated i.p. administration at 10 mg/kg b.i.d. (Table 6A) or 30 mg/kg b.i.d. […] Numbers in parentheses represent relative amounts with the exposure of 11a in kidney arbitrarily set at each time point to 100%. […] BQL=below quantifiable limit.

[2] = molecular target: Notch signal transduction pathway; assay: In vitro Notch signal transduction pathway activity assay (DR215/F2 luciferase reporter); type: cell-based, human; conditions: for IC50 for blockade of the Notch pathway, range in words: DR215/F2 cell reporter assay; for IC50: Homo sapiens, 215/F2 reporter cell line, 19 h, mean of at least 3 experiments
Protocol: The compounds were dissolved in dimethyl sulfoxide (DMSO) at 10 mM stock solution, aliquoted and stored at −4° C. until use, then diluted in PBS or cell culture medium. In the experimental settings, controls containing increasing concentrations of DMSO, corresponding to the amount of DMSO of the diluted compounds were always included. For in vivo experiments, the compounds were dissolved in 0.9% NaCl, incubated 30 min at 40° C. and sonicated for 5 min.
The requirement of proteolytic activation of the prodrugs to inhibit Notch cleavage by the γ-secretase, was investigated using a reporter assay (Table 3). The DR215/F2 cell line expresses a reporter construct designed to monitor the activity of the Notch signal transduction pathway. The DR215/F2 cell line 39 carries two transgenes: the firefly luciferase reporter gene expressed under the control of the Gal4 promoter and the human Notch1 activator gene fused with the yeast Gal4 transcription factor. This assay confirmed that the prodrugs were able to inhibit γ-secretase and the activation of the Notch pathway. The DR215/F2 cell reporter assay was also used to determine the IC50 for blockade of the Notch pathway by all the compounds designed and prepared.
The values were determined using the 215/F2 reporter cell line for Notch activation by the γ-secretase. All values are the mean of at least 3 experiments.
The preparation and characterization of rat brain-derived EC219 endothelial cells have been described in Juillerat-Jeanneret, L. et al. In Vitro Cell. Dev. Biol. 1992, 28A, 537-543. These cells express high levels of APA and γ-GT activities and can be used for determining kinetics in living cells, and were chosen as APA- and γ-GT-positive representative cell models. EC219 cells were grown in DMEM medium containing 1 g/l glucose, 10% heat-inactivated fetal calf serum (FCS, EuroClone, UK) supplemented with 100 U/mL penicillin and 100 μg/mL streptomycin (P/S) on uncoated cell culture plastic ware. The HEK293 and HK2 human kidney cells are available from the ATCC (American Tissue Culture Collection, Manassas, Va., USA). HEK293 cells were grown on uncoated cell culture plastic ware in Iscove modified Dulbecco medium (IMDM, Life Technologies) containing 10% FCS and P/S. HK2 cells were grown on uncoated cell culture plastic ware in DMEM/F-12 GlutaMAX medium (Gibco) containing 5% FCS, P/S, 1% ITS (1.0 mg/ml bovine insulin, 0.55 mg/ml human transferrin and 0.5 μg/ml sodium selenite, Sigma-Aldrich) and 5 ng/ml hydrocortisone. The human HEK293-derived DR215/F2 embryonic kidney cell line, stably transfected with pFR Luc and APP-Notch Gal (plasmid DR215) as described in WO 2006/061136 A2 and Brockhaus, M. Neuroreport 1998 9, 1481-1486, were maintained using IMDM with 10% FCS supplemented with P/S and kept under double-selection with 150 μg/ml G-418 and 50 μg/ml hygromycin B on coated (1:100 Poly-L-lysine) cell culture plastic ware. In this assay, the Notch-Gal4 protein is bound to the cell membrane via its trans-membrane domain. The Notch intracellular domain is released by proteolytic cleavage mediated by the γ-secretase and moves to the cell nucleus where it activates the reporter luciferase gene transcript. Inhibition of γ-secretase thus decreases luciferase activity. Briefly, cultures were grown in 96-well microplates to 80% confluence; the cells were then washed in PBS and exposed to decreasing concentrations of the γ-secretase-inhibitor analogues in complete IMDM culture medium without red phenol at 37° C. for 19 h. Then 75 μl of supernatant from each well was removed and the luciferase activity was determined by adding 25 μl of Steady-Glo luciferase assay reagent (Promega).

[3] = AA-exposed mice, 11a 10 mg/kg b.i.d. i.p. repeated, 13 h
[4] = AA-exposed mice, 13a 30 mg/kg b.i.d. i.p. repeated, 13 h
[5] = mice, 13a 30 mg/kg b.i.d. i.p. repeated, without AA (Table 6B), 13 h

In the case of `C[C@H]1Oc2ccc(F)cc2N(CCO)C(=O)[C@H]1NC(=O)[C@@](C)(O)C(=O)NCC(F)(F)C(F)(F)F` [Compound 8, N-[(6R,7S)-2-Fluoro-9-(2-hydroxy-ethyl)-6-methyl-8-oxo-6,7,8,9-tetrahydro-5-oxa-9-aza-benzocyclohepten-7-yl]-2-(S)-hydroxy-2-methyl-N′-(2,2,3,3,3-pentafluoro-propyl)-malonamide], the “Plasma concentration of formed 8” value [1, 3] is reported as “BQL”, the “IC50 for blockade of the Notch pathway, range in words” value (“IC50 for blockade” for short) [2] is reported as “low nanomolar range” and the IC50 [2] is reported as 4.4 nM.
In the case of `C[C@H]1Oc2ccc(F)cc2N(CCOC(=O)NCCN)C(=O)[C@H]1NC(=O)[C@@](C)(O)C(=O)NCC(F)(F)C(F)(F)F.Cl` [Compound 11a, 2-((2R,3S)-7-Fluoro-3-((S)-2-hydroxy-2-methyl-3-oxo-3-(2,2,3,3,3-pentafluoropropylamino)propanamido)-2-methyl-4-oxo-3,4-dihydrobenzo[b][1,4]oxazepin-5(2H)-yl)ethyl 2-aminoethylcarbamate hydrochloride], the “exposure of amine-SecrI (11a) in the Ac-γ-Glu-SecrI (13a) group, in words” value ([1]; 13a 30 mg/kg b.i.d., 12 h post administration, compared with 11a group) is reported as “comparatively lower exposure”, the “exposure of kidney and liver with amine-SecrI (11a), in words” value ([1]; AA model, 11a 10 mg/kg b.i.d., 12 h post administration) is reported as “high exposure of kidney and liver” and the “11a in kidney, relative amount (arbitrarily set to 100%)” value [1, 3] is reported as “(100) %”. The “11a in liver, relative amount (11a in kidney = 100%)” value [1, 3] was 68%, the “Plasma concentration of formed 11a” value [1, 4] was “BQL” and the concentration at 13 h ([1]; kidney, 10 mg/kg, AA-exposed mice, 11a 10 mg/kg b.i.d. i.p. repeated, 13 h, read-out: Kidney concentration of 11a) was 1830 ng/g. For the same compound, the concentration at 13 h ([1]; liver, 10 mg/kg, AA-exposed mice, 11a 10 mg/kg b.i.d. i.p. repeated, 13 h, read-out: Liver concentration of 11a) was 1250 ng/g, the concentration at 13 h ([1]; plasma, 10 mg/kg, AA-exposed mice, 11a 10 mg/kg b.i.d. i.p. repeated, 13 h, read-out: Plasma concentration of 11a) was 7.2 ng/mL and the “Liver concentration of formed 11a” value [1, 5] was “BQL”. For the same compound, the “Plasma concentration of formed 11a” value [1, 5] was “BQL”, the “IC50 for blockade” value [2] was “low nanomolar range” and the IC50 [2] was 45.6 nM.
For `CC(=O)N[C@@H](CCC(=O)NCCNC(=O)OCCN1C(=O)[C@@H](NC(=O)[C@@](C)(O)C(=O)NCC(F)(F)C(F)(F)F)[C@@H](C)Oc2ccc(F)cc21)C(=O)O` [Compound 13a, (S)-2-acetamido-5-(2-((2-((2R,3S)-7-fluoro-3-((S)-2-hydroxy-2-methyl-3-oxo-3-(2,2,3,3,3-pentafluoropropylamino)propanamido)-2-methyl-4-oxo-3,4-dihydrobenzo[b][1,4]oxazepin-5(2H)-yl)ethoxy)carbonylamino)ethylamino)-5-oxopentanoic acid], the “Plasma concentration of 13a” value [1, 4] was “BQL”, the concentration at 13 h ([1]; kidney, 30 mg/kg, AA-exposed mice, 13a 30 mg/kg b.i.d. i.p. repeated, 13 h, read-out: Kidney concentration of 13a) was 23 ng/g and the concentration at 13 h ([1]; kidney, 30 mg/kg, mice, 13a 30 mg/kg b.i.d. i.p. repeated, without AA (Table 6B), 13 h, read-out: Kidney concentration of 13a) was 11 ng/g. The concentration at 13 h ([1]; liver, 30 mg/kg, AA-exposed mice, 13a 30 mg/kg b.i.d. i.p. repeated, 13 h, read-out: Liver concentration of 13a) was 155 ng/g, the concentration at 13 h ([1]; liver, 30 mg/kg, mice, 13a 30 mg/kg b.i.d. i.p. repeated, without AA (Table 6B), 13 h, read-out: Liver concentration of 13a) was 19 ng/g and the concentration at 13 h ([1]; plasma, 30 mg/kg, mice, 13a 30 mg/kg b.i.d. i.p. repeated, without AA (Table 6B), 13 h, read-out: Plasma concentration of 13a) was 6 ng/mL. For the same compound, the “IC50 for blockade” value [2] was “μM range” and the IC50 [2] was 2880 nM.
In the case of `CC(=O)N[C@@H](CCC(=O)O)C(=O)NCCNC(=O)OCCN1C(=O)[C@@H](NC(=O)[C@@](C)(O)C(=O)NCC(F)(F)C(F)(F)F)[C@@H](C)Oc2ccc(F)cc21` [Compound 15a, (S)-4-acetamido-5-(2-((2-((2R,3S)-7-fluoro-3-((S)-2-hydroxy-2-methyl-3-oxo-3-(2,2,3,3,3-pentafluoropropylamino)propanamido)-2-methyl-4-oxo-3,4-dihydrobenzo[b][1,4]oxazepin-5(2H)-yl)ethoxy)carbonylamino)ethylamino)-5-oxopentanoic acid], the “IC50 for blockade” value [2] is reported as “high nM range” and the IC50 [2] is reported as 625 nM.
